For the experiment, the target named is T1, human PAD4 (Homo sapiens, UniProt Q9UM07).
T1 construct: human PAD4 (NM_012387), A2P663, was PCR amplified; His-SUMO (N, cleaved yes); made in house; host or cells: E. coli BL21(DE3)
Put plainly: In vitro PAD4 BAEE biochemical assay. Particulars: human PAD4, BAEE substrate; 5 nM PAD4, 2 mM calcium chloride, 3 mM BAEE; geometric mean of multiple experiments. The procedure, abridged:
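Ammonia generated from BAEE serves as the readout, measured by o-phthalaldehyde after EDTA termination. Final conditions: 5 nM human PAD4 (SUMO tag cleaved), 2 mM CaCl2, 3 mM BAEE, pH 7.6 MOPS buffer, 25 °C for 2 h following a 30-min compound preincubation.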

SMILES strings stand for the structures.

T1 sequence (Q9UM07 2-663): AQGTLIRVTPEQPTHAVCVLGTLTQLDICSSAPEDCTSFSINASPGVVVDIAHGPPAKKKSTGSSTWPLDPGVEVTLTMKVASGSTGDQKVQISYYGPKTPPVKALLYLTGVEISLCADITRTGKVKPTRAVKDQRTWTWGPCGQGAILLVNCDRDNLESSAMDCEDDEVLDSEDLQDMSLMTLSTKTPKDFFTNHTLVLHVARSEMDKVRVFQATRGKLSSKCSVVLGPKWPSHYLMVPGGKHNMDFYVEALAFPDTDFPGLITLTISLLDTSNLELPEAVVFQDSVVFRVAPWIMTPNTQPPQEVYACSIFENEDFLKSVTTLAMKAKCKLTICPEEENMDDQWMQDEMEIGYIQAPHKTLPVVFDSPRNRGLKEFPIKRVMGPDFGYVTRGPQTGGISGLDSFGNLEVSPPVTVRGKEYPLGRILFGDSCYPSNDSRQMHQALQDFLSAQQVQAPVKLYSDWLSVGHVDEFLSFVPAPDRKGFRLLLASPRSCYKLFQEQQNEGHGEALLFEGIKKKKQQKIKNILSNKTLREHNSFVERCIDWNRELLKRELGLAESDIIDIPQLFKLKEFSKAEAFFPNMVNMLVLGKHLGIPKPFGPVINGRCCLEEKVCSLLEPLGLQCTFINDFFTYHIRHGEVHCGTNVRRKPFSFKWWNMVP

Take `COc1cc(C(=O)N2[C@H]3CC[C@@H]2[C@H](N)C3)cc2nc(-c3cc4ccc([C@@H](C)NC(=O)c5cccnc5)nc4n3CC3CC3)c(C)n12` [Example 120, ~{N}-[(1~{R})-1-[2-[7-[(1~{R},2~{R},4~{S})-2-amino-7-azabicyclo[2.2.1]heptane-7-carbonyl]-5-methoxy-3-methylimidazo [1,2-a]pyridin-2-yl]-1-(cyclopropylmethyl)pyrrolo [2,3-b]pyridin-6-yl]ethyl]pyridine-3-carboxamide]: the IC50 is 30.1 nM.
As for `COc1cc(C(=O)N2[C@H]3CC[C@@H]2[C@H](N)C3)cc2nc(-c3cc4ccc([C@@H](C)NC(=O)c5ccccc5C)nc4n3CC3CC3)c(C)n12` [Example 121, ~{N}-[(1~{R})-1-[2-[7-[(1~{R},2~{R},4~{S})-2-amino-7-azabicyclo[2.2.1]heptane-7-carbonyl]-5-methoxy-3-methylimidazo [1,2-a]pyridin-2-yl]-1-(cyclopropylmethyl)pyrrolo [2,3-b]pyridin-6-yl]ethyl]-2-methylbenzamide], the figure is 108 nM; as for `COc1cc(C(=O)N2[C@H]3CC[C@@H]2[C@H](N)C3)cc2nc(-c3cc4ccc([C@@H](C)NC(=O)c5cccc(C#N)c5)nc4n3CC3CC3)c(C)n12` [Example 122, ~{N}-[(1~{R})-1-[2-[7-[(1~{R},2~{R},4~{S})-2-amino-7-azabicyclo[2.2.1]heptane-7-carbonyl]-5-methoxy-3-methylimidazo [1,2-a]pyridin-2-yl]-1-(cyclopropylmethyl)pyrrolo [2,3-b]pyridin-6-yl]ethyl]-3-cyanobenzamide], 78.5 nM; as for `COc1cc(C(=O)N2[C@H]3CC[C@@H]2[C@H](N)C3)cc2nc(-c3cc4ccc([C@@H](C)NC(=O)c5ccc(C#N)cc5)nc4n3CC3CC3)c(C)n12` [Example 123, ~{N}-[(1~{R})-1-[2-[7-[(1~{R},2~{R},4~{S})-2-amino-7-azabicyclo[2.2.1]heptane-7-carbonyl]-5-methoxy-3-methylimidazo [1,2-a]pyridin-2-yl]-1-(cyclopropylmethyl)pyrrolo [2,3-b]pyridin-6-yl]ethyl]-4-cyanobenzamide], 79 nM.
For `COc1cc(C(=O)N2CCCC(C)(N)C2)cc2nc(-c3cc4ccc([C@@H](C)NC(=O)C56CC(F)(C5)C6)nc4n3CC3CC3)c(C3CC3)n12` (stereo partly drawn) [Example 124, ~{N}-[(1~{R})-1-[2-[7-(3-amino-3-methylpiperidine-1-carbonyl)-3-cyclopropyl-5-methoxyimidazo [1,2-a]pyridin-2-yl]-1-(cyclopropylmethyl)pyrrolo [2,3-b]pyridin-6-yl]ethyl]-3-fluorobicyclo[1.1.1]pentane-1-carboxamide], the IC50 was found to be 13000 nM.
As for `COc1cc(C(=O)N2CCC[C@@H](N)C2)cc2nc(-c3cc4ccc([C@@H](C)NC(=O)C56CC(F)(C5)C6)nc4n3CC3CC3)c(C)n12` [Example 125, ~{N}-[(1~{R})-1-[2-[7-[(3~{R})-3-aminopiperidine-1-carbonyl]-5-methoxy-3-methylimidazo[1,2-a]pyridin-2-yl]-1-(cyclopropylmethyl)pyrrolo[2,3-b]pyridin-6-yl]ethyl]-3-fluorobicyclo[1.1.1] pentane-1-carboxamide], the figure is 78.7 nM; as for `COc1cc(C(=O)N2[C@H]3CC[C@@H]2[C@H](N)C3)cc2nc(-c3cc4ccc([C@@H](C)NC(=O)C(C)(C)O)nc4n3CC3CC3)c(C)n12` [Example 126, ~{N}-[(1~{R})-1-[2-[7-[(1~{R},2~{R},4~{S})-2-amino-7-azabicyclo[2.2.1]heptane-7-carbonyl]-5-methoxy-3-methylimidazo [1,2-a]pyridin-2-yl]-1-(cyclopropylmethyl)pyrrolo [2,3-b]pyridin-6-yl]ethyl]-2-hydroxy-2-methylpropanamide], 45.9 nM.
With `COc1cc(C(=O)N2CCC[C@@H](N)C2)cc2nc(-c3cc4ccc([C@@H](C)NC(=O)C(C)(C)O)nc4n3CC3CC3)c(C)n12` [Example 127, ~{N}-[(1~{R})-1-[2-[7-[(3~{R})-3-aminopiperidine-1-carbonyl]-5-methoxy-3-methylimidazo [1,2-a]pyridin-2-yl]-1-(cyclopropylmethyl)pyrrolo [2,3-b]pyridin-6-yl]ethyl]-2-hydroxy-2-methylpropanamide] the figure was 76.2 nM; with `COc1cc(C(=O)N2[C@H]3CC[C@@H]2[C@H](N)C3)cc2nc(-c3cc4ccc([C@@H](C)NC(=O)C5(CO)CC5)nc4n3CC3CC3)c(C)n12` [Example 128, ~{N}-[(1~{R})-1-[2-[7-[(1~{R},2~{R},4~{S})-2-amino-7-azabicyclo[2.2.1]heptane-7-carbonyl]-5-methoxy-3-methylimidazo [1,2-a]pyridin-2-yl]-1-(cyclopropylmethyl)pyrrolo [2,3-b]pyridin-6-yl]ethyl]-1-(hydroxymethyl) cyclopropane-1-carboxamide], 35.8 nM; with `COc1cc(C(=O)N2CCC[C@@H](N)C2)cc2nc(-c3cc4ccc([C@@H](C)NC(=O)C5(CO)CC5)nc4n3CC3CC3)c(C)n12` [Example 129, ~{N}-[(1~{R})-1-[2-[7-[(3~{R})-3-aminopiperidine-1-carbonyl]-5-methoxy-3-methylimidazo [1,2-a]pyridin-2-yl]-1-(cyclopropylmethyl)pyrrolo [2,3-b]pyridin-6-yl]ethyl]-1-(hydroxymethyl) cyclopropane-1-carboxamide], 56.3 nM.
As for `COc1cc(C(=O)N2[C@H]3CC[C@@H]2[C@H](N)C3)cc2nc(-c3cc4ccc([C@@H](C)NC(=O)[C@@H]5CC5(F)F)nc4n3CC3CC3)c(C)n12` [Example 130, (1~{S})-~{N}-[(1~{R})-1-[2-[7-[(1~{R},2~{R},4~{S})-2-amino-7-azabicyclo [2.2.1]heptane-7-carbonyl]-5-methoxy-3-methylimidazo [1,2-a]pyridin-2-yl]-1-(cyclopropylmethyl)pyrrolo [2,3-b]pyridin-6-yl]ethyl]-2,2-difluorocyclopropane-1-carboxamide], the figure is 47.2 nM; as for `COc1cc(C(=O)N2[C@H]3CC[C@@H]2[C@H](N)C3)cc2nc(-c3cc4ccc([C@@H](C)NC(=O)[C@H]5CC5(F)F)nc4n3CC3CC3)c(C)n12` [Example 131, (1~{R})-~{N}-[(1~{R})-1-[2-[7-[(1~{R},2~{R},4~{S})-2-amino-7-azabicyclo[2.2.1]heptane-7-carbonyl]-5-methoxy-3-methylimidazo [1,2-a]pyridin-2-yl]-1-(cyclopropylmethyl)pyrrolo [2,3-b]pyridin-6-yl]ethyl]-2,2-difluorocyclopropane-1-carboxamide], 30.4 nM; as for `COc1cc(C(=O)N2[C@H]3CC[C@@H]2[C@H](N)C3)cc2nc(-c3cc4ccc([C@@H](C)NC(=O)C56CC(CO5)C6)nc4n3CC3CC3)c(C)n12` [Example 132, ~{N}-[(1~{R})-1-[2-[7-[(1~{R},2~{R},4~{S})-2-amino-7-azabicyclo[2.2.1]heptane-7-carbonyl]-5-methoxy-3-methylimidazo [1,2-a]pyridin-2-yl]-1-(cyclopropylmethyl)pyrrolo [2,3-b]pyridin-6-yl]ethyl]-2-oxabicyclo[2.1.1]hexane-1-carboxamide], 698 nM.
As to `COc1cc(C(=O)N2[C@H]3CC[C@@H]2[C@H](N)C3)cc2nc(-c3cc4ccc([C@@H](C)NC(=O)C56CC(Cl)(C5)C6)nc4n3CC3CC3)c(C)n12` [Example 133, ~{N}-[(1~{R})-1-[2-[7-[(1~{R},2~{R},4~{S})-2-amino-7-azabicyclo[2.2.1]heptane-7-carbonyl]-5-methoxy-3-methylimidazo [1,2-a]pyridin-2-yl]-1-(cyclopropylmethyl)pyrrolo [2,3-b]pyridin-6-yl]ethyl]-3-chlorobicyclo[1.1.1]pentane-1-carboxamide], the IC50 was 56.1 nM.
With `COc1cc(C(=O)N2[C@H]3CC[C@@H]2[C@H](N)C3)cc2nc(-c3cc4ccc([C@@H](C)NC(=O)C(C)(C)CO)nc4n3CC3CC3)c(C)n12` [Example 134] the figure was 66.5 nM.
As for `COc1cc(C(=O)N2[C@H]3CC[C@@H]2[C@H](N)C3)cc2nc(-c3cc4ccc([C@@H](C)NC(=O)C5(C)CCOCC5)nc4n3CC3CC3)c(C)n12` [Example 135, ~{N}-[(1~{R})-1-[2-[7-[(1~{R},2~{R},4~{S})-2-amino-7-azabicyclo[2.2.1]heptane-7-carbonyl]-5-methoxy-3-methylimidazo [1,2-a]pyridin-2-yl]-1-(cyclopropylmethyl)pyrrolo [2,3-b]pyridin-6-yl]ethyl]-4-methyloxane-4-carboxamide], the figure is 106 nM.
With `COc1cc(C(=O)N2[C@H]3CC[C@@H]2[C@H](N)C3)cc2nc(-c3cc4ccc([C@@H](C)NC(=O)C5(F)CC5)nc4n3CC3CC3)c(C)n12` [Example 136, ~{N}-[(1~{R})-1-[2-[7-[(1~{R},2~{R},4~{S})-2-amino-7-azabicyclo[2.2.1]heptane-7-carbonyl]-5-methoxy-3-methylimidazo [1,2-a]pyridin-2-yl]-1-(cyclopropylmethyl)pyrrolo [2,3-b]pyridin-6-yl]ethyl]-1-fluorocyclopropane-1-carboxamide] the figure was 143 nM; with `COc1cc(C(=O)N2[C@H]3CC[C@@H]2[C@H](N)C3)cc2nc(-c3cc4ccc([C@@H](C)NC(=O)C5(C(F)F)CC5)nc4n3CC3CC3)c(C)n12` [Example 137, ~{N}-[(1~{R})-1-[2-[7-[(1~{R},2~{R},4~{S})-2-amino-7-azabicyclo[2.2.1]heptane-7-carbonyl]-5-methoxy-3-methylimidazo [1,2-a]pyridin-2-yl]-1-(cyclopropylmethyl)pyrrolo [2,3-b]pyridin-6-yl]ethyl]-1-(difluoromethyl) cyclopropane-1-carboxamide], 107 nM.

By IC50 is commonly meant the concentration that gives 50% inhibition.

The values above are taken from patent US12240862B2, “Inhibitors of peptidylarginine deiminases” (Gilead Sciences, Inc., priority 2020, dated 2025).
